Assay results from patent US20180291325A1, “IN VITRO PHARMACOKINETIC-PHARMACODYNAMIC DEVICE” (Merck Sharp & Dohme Corp., priority 2015, published 2018).

Assays:
Type in all cases: cell-based
[1] = tested on: HCV genotype 1B (5-2) replicon cell line; assay: BelloCell in vitro PK-PD PK driver experiments; conditions: adjusted to free fraction, Day 3
From the text: A 4-tube HulaCell system was validated by comparing the results for the Compound PK driver experiments, previously performed in the BelloCell® (data not shown), with the results obtained from dose escalation and dose fractionation studies performed using the HulaCell system.
Calculated PK Driver parameters from HulaCell experiments, compared to those determined in BelloCell experiments are shown in Table 1.
The Hula Cell was successfully used to determine the Maximum efficacy threshold values at Day 3 for Compound in the HCV genotype 1B (5-2) replicon cell line. The PK correlation curves were remarkably similar between the BelloCell® and Hula cell with the only noticeable differences being the prediction of the % T>EC50 and the AUC.

[2] = tested on: HCV genotype 1B (5-2) replicon cell line; assay: HulaCell in vitro PK-PD PK driver experiments (dose escalation and dose fractionation; luciferase reporter and RT-PCR viral RNA); conditions: adjusted to free fraction, Day 3
Description: Three QD infusions of the HCV NS3/4 protease inhibitor, (1aR,5S,8S,10R,22aR)-N-[(1R,2S)-1-[(Cyclopropylsulfonamido)carbonyl]-2-ethenylcyclopropyl]-14-methoxy-5-(2-methylpropan-2-yl)-3,6-dioxo-1,1a,3,4,5,6,9,10,18,19,20,21,22,22a-tetradecahydro-8H-7,10-methanocyclopropa[18,19][1,10,3,6]dioxadiazacyclononadecino[11,12-b]quinoxaline-8-carboxamide (“Compound”; See U.S. Pat. No. 7,973,040) were tested in the Hula Cell using the in vitro PK-PD software program and PK was monitored by collecting samples at multiple time point during each infusion. In addition, microcarrier beads were also collected daily to measure changes in viral load by RT-PCR Taqman analysis of cell lysates.
A frozen vial of HCV genotype 1B replicon cells (5-2 cells which contain genotype 1B replicon and a Luciferase reporter) was thawed and seeded into one T-75 flask. At confluency, the flask was trypsinized and cells resuspended to 6×10^6 cells in 9.5 ml DMEM containing 10% FBS and 0.5 mg/ml G418 in a 50 ml LeviTube™. 0.5 ml of collagen-coated microcarrier bead slurry mixture (50% V/V) was added to the 9.5 ml of cells and attachment was performed using BioWiggler™ microcarrier loading program (RPM=60; 1 min mixing; 40 min settle (repeat 6x=4 hr total)). Continuous mixing at 60 rpm was performed overnight. The next morning, 30 ml of fresh media was added to the culture. The microcarriers and attached cells were allowed to settle before removing 30 ml of media with any unattached cells from the LeviTube™. Afterward, 30 ml of fresh media was added back to the LeviTube™ to make the final volume 40 ml. […]
PK/PD samples were collected on Day 0, Day 1, Day 2, and Day 3 directly from the 50 ml LeviTube™ at specified time points. […] Compound concentration in the PK samples was determined by Mass Spectroscopy analysis.
Samples for PD determination (viral load content by RT-PCR) were washed once with 1 ml PBS (w/out Mg^2+ and Ca^2+). […] Viral RNA content of the cells was determined by quantitative PCR. […]

[3] = tested on: HCV genotype 1B containing 5-2 cells; assay: plate-based RNA content assay; conditions: Hepatitis C virus; HCV genotype 1B 5-2 cells, plate-based RNA content assay (data not shown)
Description: The EC50 of Compound against HCV genotype 1B containing 5-2 cells was determined to be 0.7 nM in plate-based RNA content assays (data not shown). A dose escalation experiment in which HCV genotype 1B 5-2 cells were dosed QD over three days at 0.3×EC50, 1×EC50, 3×EC50 and 10×EC50 and a dose fractionation experiment in which cells were dosed QD, BID or TID to obtain a constant AUC of ˜16.8 nM were performed using the HulaCell system. Results of the reporter assays for the dose escalation experiment are shown in FIGS. 6A-B. The combined PK results of the dose escalation experiment area shown in FIG. 7.

## C=C[C@@H]1C[C@]1(NC(=O)[C@@H]1C[C@@H]2CN1C(=O)[C@H](C(C)(C)C)NC(=O)O[C@@H]1C[C@H]1CCCCCc1nc3ccc(OC)cc3nc1O2)C(=O)NS(=O)(=O)C1CC1 [Compound, (1aR,5S,8S,10R,22aR)-N-[(1R,2S)-1-[(Cyclopropylsulfonamido)carbonyl]-2-ethenylcyclopropyl]-14-methoxy-5-(2-methylpropan-2-yl)-3,6-dioxo-1,1a,3,4,5,6,9,10,18,19,20,21,22,22a-tetradecahydro-8H-7,10-methanocyclopropa[18,19][1,10,3,6]dioxadiazacyclononadecino[11,12-b]quinoxaline-8-carboxamide]
[1]
  Maximum Efficacy Threshold % T > EC50: ≥50%
  Maximum Efficacy Threshold AUC0-24: ≥8.4 nM·h
  Maximum Efficacy Threshold Cmin: ≥0.11 nM
[2]
  Maximum Efficacy Threshold % T > EC50: ≥84%
  Maximum Efficacy Threshold AUC0-24: ≥23.7 nM·h
  Maximum Efficacy Threshold Cmin: ≥0.10 nM
[3]
  EC50: 700 pM
